Results: patent publication US9193978B2, “Production of alkenes by combined enzymatic conversion of 3-hydroxyalkanoic acids” (Scientist of Fortune, S.A., priority 2010, dated 2015)
Each block holds one molecule with its values, some of them ahead of it.

Key:
[1] = molecular target: T1, Thermoplasma acidophilum MDP decarboxylase, SEQ ID NO: 2 (Thermoplasma acidophilum, UniProt Q9HIN1); experiment: Phosphotransferase activity (ADP release from 3-hydroxyisovalerate and ATP), pyruvate kinase/lactate dehydrogenase coupled assay; format: biochemical; details: 40° C., pH 7.0, 5 mM ATP, 0-50 mM HIV
T1 construct: Th; His6 (inserted after the initiator methionine) (N); made in house; host or cells: Escherichia coli BL21(DE3)
T1 sequence (Q9HIN1 1-318): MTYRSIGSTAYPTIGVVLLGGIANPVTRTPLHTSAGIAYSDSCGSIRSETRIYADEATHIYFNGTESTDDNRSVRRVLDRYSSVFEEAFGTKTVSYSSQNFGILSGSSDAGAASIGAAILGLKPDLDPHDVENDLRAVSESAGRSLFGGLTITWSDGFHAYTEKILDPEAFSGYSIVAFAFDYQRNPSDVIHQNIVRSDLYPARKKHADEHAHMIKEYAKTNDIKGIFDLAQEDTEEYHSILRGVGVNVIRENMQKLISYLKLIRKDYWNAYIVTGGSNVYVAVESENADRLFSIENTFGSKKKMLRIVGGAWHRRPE
Procedure: (§1) The release of ADP that is associated with IBN production from HIV was quantified using the pyruvate kinase/lactate dehydrogenase coupled assay (FIG. 10). The MDP decarboxylases from P. torridus (SEQ ID NO:1), Th. Acidophilum (SEQ ID NO:2), S. infantarius (SEQ ID NO:7), S. mitis (SEQ ID NO:10) were evaluated for their ability to phosphorylate HIV, releasing ADP.
(§2) The studied enzymatic reaction was carried out under the following conditions at 40° C.:
(§3) 0.5 mM Phosphoenolpyruvate
(§4) 3 U/ml Lactate dehydrogenase
(§5) 0-50 mM 3-Hydroxyisovalerate (HIV)
(§6) The pH was adjusted to 7.0.
(§7) Each assay was started by addition of particular enzyme (at a concentration from 0.05 to 1 mg/ml) and the disappearance of NADH was monitored by following the absorbance at 340 nm.
(§8) Assays with MDP decarboxylases from the P. torridus phylum as well from the Streptococcus genus gave rise to a reproducible increase in ADP production in the presence of HIV.

[2] = molecular target: T2, Picrophilus torridus MDP decarboxylase, SEQ ID NO: 1 (Picrophilus torridus, UniProt Q6KZB1); experiment: as above; format: biochemical; details: 40° C., pH 7.0, 5 mM ATP, 0-50 mM HIV
T2 construct: His6 (inserted after the initiator methionine) (N); made in house; host or cells: Escherichia coli BL21(DE3)
T2 sequence (Q6KZB1 1-324): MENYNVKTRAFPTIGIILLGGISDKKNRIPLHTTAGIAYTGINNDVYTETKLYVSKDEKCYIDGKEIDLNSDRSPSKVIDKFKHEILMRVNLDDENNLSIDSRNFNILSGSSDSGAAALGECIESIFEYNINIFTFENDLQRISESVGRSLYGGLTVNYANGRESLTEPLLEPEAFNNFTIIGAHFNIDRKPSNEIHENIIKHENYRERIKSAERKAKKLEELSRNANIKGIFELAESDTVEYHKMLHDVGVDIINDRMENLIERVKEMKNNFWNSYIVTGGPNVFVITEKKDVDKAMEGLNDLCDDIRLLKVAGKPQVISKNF
Description: FIG. 12: Isobutene production from 3-hydroxyisovalerate in the following assays: • Without enzyme • In the presence of S. mitis MDP decarboxylase (SEQ ID NO:10) • In the presence of Th. acidophilum MDP decarboxylase (SEQ ID NO:2) • In the presence of both Th. acidophilum (SEQ ID NO:2) and S. mitis (SEQ ID NO:10) enzymes.
as §1, §2, §3, §4, §5, §6, §7, §8

[3] = molecular target: T3, Streptococcus mitis MDP decarboxylase, SEQ ID NO: 10 (Streptococcus mitis, UniProt A0ACG7RFV4); experiment: Effect of ATP on isobutene production from 3-phosphonoxyisovalerate (GC); format: biochemical; details: 10 mM ATP vs 0 mM ATP, 25 mM PIV, pH 7.5, 37° C., 26 h
Procedure: The assays of isobutene production were carried out under the following conditions:
0 mM ATP (assay No1 and No2)
10 mM ATP (assay No3 and No4)
25 mM 3-phosphonoxyisovalerate
(§9) The pH was adjusted to 7.5
The reaction was initiated by addition of 2 mg of purified MDP decarboxylase from S. mitis (SEQ ID NO:10) to 0.5 ml of reaction mixture. Control reactions were run in the absence of enzyme (assays No1 and No3).
The mixture was incubated without shaking at 37° C. for 26 h in a sealed vial of 2 ml (Interchim).
(§10) One ml of the gaseous phase was collected and injected into a Varian 430-GC gas chromatograph equipped with an FID detector and a CP SilicaPlot column (Varian). Commercial isobutene was used as reference.

[4] = molecular target: T3, Streptococcus mitis MDP decarboxylase, SEQ ID NO: 10; experiment: Kinetic parameters of isobutene production from 3-phosphonoxyisovalerate (GC); format: biochemical; details: pH 7.5, 37° C., 44 h, 40 mM ATP, 0-100 mM 3-phosphonoxyisovalerate
Procedure: The kinetic parameters of isobutene production were measured under the following conditions:
0-100 mM 3-phosphonoxyisovalerate
as §9
The reaction was initiated by addition of 1 mg of purified MDP decarboxylase from S. mitis (SEQ ID NO:10) to 0.5 ml of reaction mixture. The mixture was then incubated without shaking at 37° C. for 44 h in a sealed vial of 2 ml (Interchim).
as §10

[5] = substrate: CC(C)(O)CC(=O)O; experiment: Phosphotransferase activity (ADP release from 3-hydroxyisovalerate and ATP), pyruvate kinase/lactate dehydrogenase coupled assay; format: biochemical, Streptococcus infantarius; details: other: 40° C., pH 7.0, 5 mM ATP, 0-50 mM HIV
Procedure: as §1, §2, §3, §4, §5, §6, §7, §8

Km [1]: 4.02 mM | Km [2]: 9.17 mM
Molecule: CC(C)(O)CC(=O)O [3-hydroxyisovalerate]

Molecule: Nc1ncnc2c1ncn2[C@@H]1O[C@H](COP(=O)(O)OP(=O)(O)OP(=O)(O)O)[C@@H](O)[C@H]1O [ATP]
increase of isobutene production from 3-phosphonoxyisovalerate (PIV) on addition of ATP [3]: 120 fold

Molecule: CC(C)(CC(=O)O)OP(=O)(O)O [3-phosphonoxyisovalerate]
Km [4]: > 60 mM | kcat [4]: at least 1.3×10^−3 sec^−1

B1: Streptococcus infantarius MDP decarboxylase, SEQ ID NO: 7 (Streptococcus infantarius subsp. infantarius ATCC BAA-102) (protein)
chain: MDRKIVTVKSYANIAIIKYWGKADAAKMIPATSSISLTLENMFTTTSVSFLPDSASHDEFYINGVLQDDKEHAKISAIIDQYRGQRSEYVKVETSNNMPTAAGLSSSSSGLSALVKACNELFETGLTRAELAQKAKFASGSSSRSFFGPLAAWDKDSGEVYPVQTDLKLAMIMLVLSDSKKSISSREGMKRCVETSTTFADWVKQSEQDYKDMLGYLKNNDFERVGELTERNALAMHDTNTHANPPFNYLTEESYKAMEFVKQLRSEGEKCYFTMDAGPNVKVLCLEEDLERLTKRFEENYRVIVSRTKEL
Km [5]: 13.4 mM | kcat [5]: 0.03 s⁻¹ | kcat/Km [5]: 2 M⁻¹ s⁻¹
